Reference: patent US11085081B2, “Methods and materials for determining pain sensitivity and predicting and treating related disorders” (The University of North Carolina at Chapel Hill, priority 2004, dated 2021)

Assays:
3T3-L1 adipocytes = assay: In vitro cytokine measurement (real time PCR of transcripts) in adipocytes; assay type: cell-based, mouse
Method: Cell growth media consisted of Dulbecco's modified Eagle's medium supplemented with 10% heat-inactivated fetal bovine serum (Sigma, St. Louis, Mo., U.S.A.) and 1× penicillin-streptomycin (Gibco, Carlsbad, Calif., U.S.A.). Cells were maintained in a humidified atmosphere of 95% air and 5% CO2.
Two days after reaching confluence in growth media, adipogenesis was induced by incubating cells in growth media containing 0.25 μM dexamethasone (Sigma), 0.5 mM IBMX (Sigma), and 1 μM insulin (Sigma). After an additional 2 days in growth media containing 1 μM insulin, cells were grown for 6-8 days in normal growth media.
Total RNA was isolated using the RNeasy Mini Kit (Qiagen, Valencia, Calif., U.S.A.). RNA was then treated with 2 units of DNase I (Ambion, Austin, Tex., U.S.A.) at 37° C. for 30 min. Reverse transcription was performed according to the manufacturer's instructions. Briefly, the reverse transcription reaction mixture consisted of 1 μg DNase 1-treated RNA, 500 ng oligo-dT12-18, 10 mM dNTP, 40 units RNasin (Promega, Madison, Wis., U.S.A.), and 200 units of reverse transcriptase SUPERSCRIPT III™ (Invitrogen, Carlsbad, Calif., U.S.A.). cDNA synthesis was carried out at 50° C. for 1 hr followed by inactivation of reverse transcriptase at 70° C. for 15 min.
Mouse macrophages (RAW 264.7) and […] preadipocytes (3T3-L1) were obtained from the University of North Carolina Tissue Culture Facility. Cell maintenance and 3T3-L1 preadipocyte differentiation is described herein below. For pharmacological experiments, cells were seeded at a density of 5×10^5 cells/well in a 12-well plate (Corning). Total RNA was isolated and reverse transcribed as described in the supplementary materials. TNFα, IL-1β, and IL-6 transcripts were quantitated in quadruplicate by real time polymerase chain reaction using TAQMAN® Gene Expression Assays (Applied Biosystems, Foster City, Calif., U.S.A.) in an ABI PRISM 7000 Sequence Detection System. TNFα, IL-1β, and IL-6 transcript levels were normalized to Glyceraldehyde-3-phosphate dehydrogenase (GAPDH).

TNFα, IL-1β, and IL-6 = assay: In vivo plasma cytokine measurement (ELISA); set-up: species or system rat; conditions: rats; ICI118,551 or SR59230A prior to OR486, low, middle and high dose pooled; relative to vehicle prior to OR486
Method: Blood was centrifuged and plasma separated from red blood cells. Plasma IL-6 was measured in duplicate using enzyme-linked immunosorbant assay (ELISA) kits from R&D systems (Minneapolis, Minn., U.S.A.). Plasma TNFα and IL-1β were measured in duplicate by the University of North Carolina Proteomics Ilmmunotechnologies Core using ELISA kits from Biosource (Camarillo, Calif., U.S.A.) and the National Institute for Biological Standards and Control (UK), respectively.

Sprague-Dawley rats = assay: Mechanical and thermal pain behavior testing (von Frey monofilaments, radiant heat); assay type: in vivo, rat; conditions: for blockade of OR486-induced hyperalgesia / heightened pain sensitivity: antagonist i.p. prior to OR486; for paw withdrawal latency to radiant heat after OR486, selective βAR antagonists: i.p. 10 min prior to OR486, ICI118,551 5.0 mg/kg; for paw withdrawal latency to radiant heat after OR486, selective βAR antagonists / paw withdrawal frequency to mechanical stimuli after OR486, selective βAR antagonists / paw withdrawal threshold to mechanical stimuli after OR486, selective βAR antagonists: SR59230A 5 or 50 mg/kg, betaxolol 0.1, 1.0, 10 mg/kg, relative to vehicle prior to OR486; for paw withdrawal frequency to mechanical stimuli after OR486, selective βAR antagonists / paw withdrawal threshold to mechanical stimuli after OR486, selective βAR antagonists: i.p. 10 min prior to OR486, ICI118,551 0.5 or 5.0 mg/kg; for paw withdrawal frequency to mechanical stimuli, antagonist in the absence of OR486 / paw withdrawal latency to radiant heat, antagonist in the absence of OR486 / paw withdrawal threshold to mechanical stimuli, antagonist in the absence of OR486: i.p. 10 min prior to vehicle, phentolamine 3, propranolol 3, SCH23390 0.2, spiperone 0.2, betaxolol 1.0, ICI118,551 0.5, SR59230A 5 mg/kg, relative to vehicle
Method: Rats were placed in plexiglass cages positioned over an elevated perforated stainless steel platform and habituated to the environment for 15-25 min prior to testing. Paw withdrawal threshold to punctate mechanical stimulation was assessed using the up-down method of Chaplan et al. (1994). A series of nine calibrated filaments (with bending forces of 0.40, 0.68, 1.1, 2.1, 3.4, 5.7, 8.4, 13.2, and 25.0 g; Sammons Preston Rolyan, Bolingbrook, Ill., U.S.A.) with approximately equal logarithmic spacing between stimuli (Mean±SEM: 0.232±0.04 units) were presented to the hind paw in successive order, whether ascending or descending. Filaments were positioned in contact with the hind paw for a duration of 3 s or until a withdrawal response occurred. Testing was initiated with the middle hair of the series (3.4 g). In the absence of a paw withdrawal response, an incrementally stronger filament was presented and in the event of a paw withdrawal, an incrementally weaker filament was presented. After the initial response threshold was crossed, this procedure was repeated four times in order to obtain a total of six responses in the immediate vicinity of the threshold. The presence of paw withdrawal (X) and absence of withdrawal (O) was noted together with the terminal filament used in the series of six responses. The 50% g threshold=(10^[Xf+kδ])/10,000, where Xf=value (in log units) of the final von Frey hair used; k=tabular value of pattern of positive (X) and negative (O) responses, and δ=mean difference (in log units) between stimuli.
Immediately following determination of the response threshold, paw withdrawal frequency (%) to punctate mechanical stimulation was assessed. A von Frey monofilament with a calibrated bending force of 25 g was presented to the hind paw 10 times for a duration of 1 s with an interstimulus interval of approximately 1 s. Mechanical hyperalgesia was defined as an increase in the percentage frequency ([# of paw withdrawals/10]×100) of paw withdrawal evoked by stimulation with von Frey monofilaments.
Thermal hyperalgesia was evaluated using the radiant heat method of Hargreaves et al. (1988) in the same animals evaluated for responsiveness to von Frey monofilaments. Radiant heat was presented through the floor of a finely perforated stainless steel platform to the midplantar region of the hind paw.
After establishing stable baseline responsiveness to mechanical and thermal stimuli, separate groups of rats received intraperitoneal injections of OR486 (30 mg/kg i.p.; N=8) or vehicle (N=8) one hour prior to behavioral testing. Responsiveness to von Frey filaments was reassessed at 30 min intervals for 2 hours. Paw withdrawal latencies to radiant heat were subsequently assessed at 2.5 hours into the testing procedure. Twenty-four hours later, baseline responsiveness to mechanical and thermal stimuli was reestablished. Animals received OR486 (30 mg/kg i.p.) or vehicle (consistent with the previous day). Thirty minutes following administration of drug or vehicle, separate groups of rats received intraplantar carrageenan (N=4 per group) or saline (N=4 per group). Responsiveness to von Frey filaments was reassessed at 30 min intervals for 2 hours following the induction of inflammation. Paw withdrawal latencies to radiant heat were subsequently assessed at 2.5 hours post carrageenan.
Rats were handled and habituated to the testing environment 2-3 days prior to establishing baseline responsiveness. On test days, rats were placed in plexiglass cages positioned over an elevated perforated stainless steel platform and habituated to the environment for 15-20 minutes prior to testing. Paw withdrawal threshold to punctate mechanical stimulation was assessed using the up-down method of Chaplan (Chaplan et al. (1994)). […]

[1] = tested on: Mouse macrophages (RAW 264.7); assay: In vitro cytokine measurement (real time PCR of transcripts) in macrophages; assay type: cell-based
Method: Cell growth media consisted of Dulbecco's modified Eagle's medium supplemented with 10% heat-inactivated fetal bovine serum (Sigma, St. Louis, Mo., U.S.A.) and 1× penicillin-streptomycin (Gibco, Carlsbad, Calif., U.S.A.). Cells were maintained in a humidified atmosphere of 95% air and 5% CO2. Total RNA was isolated using the RNeasy Mini Kit (Qiagen, Valencia, Calif., U.S.A.). RNA was then treated with 2 units of DNase I (Ambion, Austin, Tex., U.S.A.) at 37° C. for 30 min. Reverse transcription was performed according to the manufacturer's instructions. Briefly, the reverse transcription reaction mixture consisted of 1 μg DNase 1-treated RNA, 500 ng oligo-[…], 10 mM dNTP, 40 units RNasin (Promega, Madison, Wis., U.S.A.), and 200 units of reverse transcriptase SUPERSCRIPT IIITM (Invitrogen, Carlsbad, Calif., U.S.A.). cDNA synthesis was carried out at 50° C. for 1 hr followed by inactivation of reverse transcriptase at 70° C. for 15 min. […] Cell maintenance and 3T3-L1 preadipocyte differentiation is described herein below. For pharmacological experiments, cells were seeded at a density of 5×10^5 cells/well in a 12-well plate (Corning). Total RNA was isolated and reverse transcribed as described in the supplementary materials. […] TNFα, IL-1β, and IL-6 transcript levels were normalized to Glyceraldehyde-3-phosphate dehydrogenase (GAPDH).

[2] = pretreatment 30 min: betaxolol 0.3 μM, ICI118,551 0.3 μM, SR59230A 0.1 μM, then salmeterol 0.5 μM 1 hr
[3] = salmeterol 0.5 μM, 1 hr treatment, normalized to GAPDH

Structure (SMILES)	blockade of CL316243-induced increase in adipocyte IL-6 transcript levels (3T3-L1 adipocytes; pretreatment 30 min: betaxolol 0.3 μM, ICI118,551 0.3 μM, SR59230A 0.1 μM, then CL316243 0.3 μM 1 hr)	levels of IL-1β after OR486, selective β2 or β3 antagonist (TNFα, IL-1β, and IL-6)	levels of IL-6 after OR486, selective β2 or β3 antagonist (TNFα, IL-1β, and IL-6)	levels of TNFα after OR486, selective β2 or β3 antagonist (TNFα, IL-1β, and IL-6)	blockade of OR486-induced hyperalgesia / heightened pain sensitivity (Sprague-Dawley rats)	paw withdrawal latency to radiant heat after OR486, selective βAR antagonists (Sprague-Dawley rats)	paw withdrawal frequency to mechanical stimuli after OR486, selective βAR antagonists (Sprague-Dawley rats)	paw withdrawal threshold to mechanical stimuli after OR486, selective βAR antagonists (Sprague-Dawley rats)	paw withdrawal frequency to mechanical stimuli, antagonist in the absence of OR486 (Sprague-Dawley rats)	paw withdrawal latency to radiant heat, antagonist in the absence of OR486 (Sprague-Dawley rats)	paw withdrawal threshold to mechanical stimuli, antagonist in the absence of OR486 (Sprague-Dawley rats)	blockade of salmeterol-induced increase in adipocyte TNFα and IL-6 transcript levels (3T3-L1 adipocytes; [2])	blockade of salmeterol-induced increase in macrophage IL-1β and IL-6 transcript levels [1, 2]	increase in IL-6 mRNA levels in adipocytes (3T3-L1 adipocytes; salmeterol 0.5 μM or CL316243 0.3 μM, 1 hr treatment, normalized to GAPDH)	increase in TNFα mRNA levels in adipocytes (3T3-L1 adipocytes; [3])	increase in IL-1β mRNA levels in macrophages [1, 3]	increase in IL-6 mRNA levels in macrophages [1, 3]
CCc1ccccc1OC[C@@H](O)CN[C@H]1CCCc2ccccc21 [SR59230A, (1-(2-ethylphenoxy)-3-[[(1S)-1,2,3,4-tetrahydro-1-naphthalenyl]amino]-(2S)-2-propanol)]	completely blocked	decreased levels	decreased levels	decreased levels	partially blocked	increased paw withdrawal latency	decreased paw withdrawal frequency	increased paw withdrawal threshold	failed to affect	failed to affect	failed to affect	–	–	–	–	–	–
Cc1ccc(OCC(O)C(C)NC(C)C)c2c1CCC2 (single isomer, unassigned; (-)) [ICI118,551, (−)-1-(2,3-[dihydro-7-methyl-1H-inden-4-yl]oxy)-3-([1-methylethyl]-amino)-2-butanol]	–	decreased levels	decreased levels	decreased levels	partially blocked	increased paw withdrawal latency	decreased paw withdrawal frequency	increased paw withdrawal threshold	failed to affect	failed to affect	failed to affect	completely blocked	completely blocked	–	–	–	–
OCc1cc(C(O)CNCCCCCCOCCCCc2ccccc2)ccc1O (stereo not drawn) [salmeterol]	–	–	–	–	–	–	–	–	–	–	–	–	–	8 fold	6 fold	38 fold	6.5 fold
